The supplement of paper PMC10307832

What was measured:
Assay in all cases: relative viability (nuclei count vs DMSO), 5 days (fraction); higher = more cells survive
Linsitinib + Navitoclax = compound: C[C@]1(O)C[C@@H](c2nc(-c3ccc4ccc(-c5ccccc5)nc4c3)c3c(N)nccn32)C1 [Linsitinib] + CC1(C)CCC(c2ccc(Cl)cc2)=C(CN2CCN(c3ccc(C(=O)NS(=O)(=O)c4ccc(N[C@H](CCN5CCOCC5)CSc5ccccc5)c(S(=O)(=O)C(F)(F)F)c4)cc3)CC2)C1 [Navitoclax] (partner 0.5 µM)
Procedure, shortened: (§1)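 Lung cancer cell lines were seeded in 1536-well plates and dosed by pin tool the next day, with either a single drug or a fixed anchor-drug dose combined with five library-drug doses (not always all listed) spaced in √10 steps. Five days later, one step fixed the cells and stained their nuclei (final 0.05% Triton X-100, 1% formaldehyde, 1 ug/ml Hoechst), and nuclei were counted on 4× images. Relative viability is the nuclei count in treated wells divided by the count in vehicle wells, and each value is the median of duplicate plates.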

Linsitinib + Foretinib = compound: C[C@]1(O)C[C@@H](c2nc(-c3ccc4ccc(-c5ccccc5)nc4c3)c3c(N)nccn32)C1 [Linsitinib] + COc1cc2c(Oc3ccc(NC(=O)C4(C(=O)Nc5ccc(F)cc5)CC4)cc3F)ccnc2cc1OCCCN1CCOCC1 [Foretinib] (partner 0.25 µM)
Procedure, shortened: as §1

Ispinesib + Linsitinib = compound: Cc1ccc(C(=O)N(CCCN)[C@@H](c2nc3cc(Cl)ccc3c(=O)n2Cc2ccccc2)C(C)C)cc1 [Ispinesib] + C[C@]1(O)C[C@@H](c2nc(-c3ccc4ccc(-c5ccccc5)nc4c3)c3c(N)nccn32)C1 [Linsitinib] (partner 1 µM)
Procedure, shortened: as §1

Ispinesib + Decitabine = compound: Cc1ccc(C(=O)N(CCCN)[C@@H](c2nc3cc(Cl)ccc3c(=O)n2Cc2ccccc2)C(C)C)cc1 [Ispinesib] + Nc1ncn([C@H]2C[C@H](O)[C@@H](CO)O2)c(=O)n1 [Decitabine] (partner 2 µM)
Procedure, shortened: as §1

Cell Line	relative viability (Linsitinib + Navitoclax; first compound 0.01 µM)	relative viability (Linsitinib + Navitoclax; first compound 0.03162 µM)	relative viability (Linsitinib + Navitoclax; first compound 0.1 µM)	relative viability (Linsitinib + Navitoclax; first compound 0.3162 µM)	relative viability (Linsitinib + Navitoclax; first compound 1 µM)	relative viability (Linsitinib + Foretinib; first compound 0.01 µM)	relative viability (Linsitinib + Foretinib; first compound 0.03162 µM)	relative viability (Linsitinib + Foretinib; first compound 0.1 µM)	relative viability (Linsitinib + Foretinib; first compound 0.3162 µM)	relative viability (Linsitinib + Foretinib; first compound 1 µM)	relative viability (Ispinesib + Linsitinib; first compound 0.001 µM)	relative viability (Ispinesib + Linsitinib; first compound 0.003162 µM)	relative viability (Ispinesib + Linsitinib; first compound 0.01 µM)	relative viability (Ispinesib + Linsitinib; first compound 0.03162 µM)	relative viability (Ispinesib + Linsitinib; first compound 0.1 µM)	relative viability (Ispinesib + Decitabine; first compound 0.001 µM)	relative viability (Ispinesib + Decitabine; first compound 0.003162 µM)	relative viability (Ispinesib + Decitabine; first compound 0.01 µM)	relative viability (Ispinesib + Decitabine; first compound 0.03162 µM)	relative viability (Ispinesib + Decitabine; first compound 0.1 µM)
NCI-H2023	1.02	0.628	1.07	0.839	0.87	0.864	0.546	0.835	0.512	0.515	0.79	0.74	0.627	0.439	0.149	0.226	0.233	0.247	0.129	0.103
Calu-6	0.826	0.688	0.843	0.629	0.572	0.826	0.768	0.837	0.799	0.726	0.998	–	0.712	0.297	0.133	–	–	–	–	–
NCI-H522	–	–	–	–	–	–	–	–	–	–	–	–	–	–	–	0.662	0.649	0.751	0.687	0.673
HOP-62	1.08	1.12	1.13	0.636	0.823	1.09	1.05	1.06	–	1.16	0.99	1.14	0.952	1.05	0.742	0.22	0.191	0.226	0.224	0.23
H3255	0.615	0.504	0.499	0.433	0.395	0.796	0.907	0.944	0.682	0.976	0.919	1.19	1.06	0.785	0.292	0.573	0.629	0.622	0.495	0.41
NCI-H1734	0.77	0.865	0.925	0.821	0.784	0.827	0.866	0.801	0.795	0.604	0.911	0.92	1	0.878	0.634	0.538	0.528	0.591	0.54	0.391
SK-MES-1	1.26	1.31	1.33	0.979	1.16	0.865	1.08	0.999	0.778	0.81	1.1	1.09	1.21	1.11	0.261	0.359	0.393	0.286	0.187	0.211
NCI-H1792	0.553	0.597	0.5	0.54	0.438	–	–	–	–	–	0.45	0.52	0.492	0.25	0.392	0.548	0.546	0.725	0.484	0.238
EKVX	0.967	0.637	0.989	0.814	0.854	0.988	0.358	0.779	0.252	0.686	1.15	1.05	1.17	0.927	0.454	0.366	–	0.337	0.284	0.218
EPLC-272H	1.12	1.29	1.41	–	1.2	0.72	0.693	–	–	0.656	1.17	1.53	1.48	1.05	1.06	0.395	0.355	0.377	0.322	0.25
LK-2	0.875	0.829	0.759	0.575	0.531	1.27	1.24	1.21	1.08	1.22	0.805	0.328	0.521	0.435	0.267	0.253	0.419	0.36	0.216	0.153
CAL-12T	1.2	1.2	1.28	1.05	0.991	1.08	1.13	1.18	0.752	1.1	0.98	0.784	0.785	0.778	0.193	–	–	–	–	–
NCI-H322M	1.3	1.4	1.25	1.23	1.27	1	0.77	0.989	0.916	0.923	0.966	0.945	1.01	0.569	0.921	0.744	0.771	0.697	0.666	0.559
NCI-H1650	1.33	1.36	1.29	0.743	1.1	1.2	0.902	1.12	0.697	1.03	–	–	–	–	–	0.527	0.448	0.45	0.331	0.185
NCI-H1648	–	–	–	–	–	–	–	–	–	–	–	–	–	–	–	0.532	0.484	0.474	0.614	0.343
SW 1573	0.921	0.925	1	0.81	0.701	0.959	0.912	0.764	0.744	0.628	0.934	0.743	0.983	0.801	0.453	0.44	0.58	0.421	0.156	0.199
NCI-H2405	0.906	0.72	0.954	0.716	0.846	1.01	1.04	1.06	0.965	0.813	0.974	0.755	0.968	0.783	0.435	0.754	0.741	0.845	0.831	0.695
LCLC-103H	–	–	–	–	–	0.75	0.771	0.751	0.709	0.704	1.12	1.25	1.21	1.04	1.02	0.757	0.741	0.739	0.68	0.6
HCC-44	1.01	0.839	0.85	0.718	0.794	–	–	–	–	–	0.702	0.746	0.812	0.698	0.248	0.909	0.954	0.967	0.795	0.453
RERF-LC-KJ	0.862	0.813	0.581	0.791	0.558	0.836	0.935	0.907	0.487	0.79	1.01	0.855	1.02	0.819	0.244	0.738	0.617	0.243	0.222	0.271

Cell Line	relative viability (Linsitinib + Navitoclax; first compound 0.01 µM)	relative viability (Linsitinib + Navitoclax; first compound 0.03162 µM)	relative viability (Linsitinib + Navitoclax; first compound 0.1 µM)	relative viability (Linsitinib + Navitoclax; first compound 0.3162 µM)	relative viability (Linsitinib + Navitoclax; first compound 1 µM)	relative viability (Linsitinib + Foretinib; first compound 0.01 µM)	relative viability (Linsitinib + Foretinib; first compound 0.03162 µM)	relative viability (Linsitinib + Foretinib; first compound 0.1 µM)	relative viability (Linsitinib + Foretinib; first compound 0.3162 µM)	relative viability (Linsitinib + Foretinib; first compound 1 µM)	relative viability (Ispinesib + Linsitinib; first compound 0.001 µM)	relative viability (Ispinesib + Linsitinib; first compound 0.003162 µM)	relative viability (Ispinesib + Linsitinib; first compound 0.01 µM)	relative viability (Ispinesib + Linsitinib; first compound 0.03162 µM)	relative viability (Ispinesib + Linsitinib; first compound 0.1 µM)	relative viability (Ispinesib + Decitabine; first compound 0.001 µM)	relative viability (Ispinesib + Decitabine; first compound 0.003162 µM)	relative viability (Ispinesib + Decitabine; first compound 0.01 µM)	relative viability (Ispinesib + Decitabine; first compound 0.03162 µM)	relative viability (Ispinesib + Decitabine; first compound 0.1 µM)
NCI-H1975	1.08	0.941	1.04	1.12	0.8	0.848	0.869	0.87	0.87	0.781	1.01	0.946	1.06	0.508	0.189	0.382	0.436	0.37	0.288	0.221
IA-LM	0.882	0.785	0.775	0.6	0.531	1.12	1.06	0.867	0.783	1.07	0.493	0.567	0.996	0.549	0.158	–	–	–	–	–
LCLC-97TM1	0.39	0.396	0.552	0.264	0.484	0.971	0.95	0.879	0.832	0.823	0.205	0.152	0.175	0.262	0.169	0.248	0.24	0.303	0.235	0.19
NCI-H520	1.15	0.685	1.1	–	0.893	0.704	0.529	0.988	–	0.952	1.13	0.957	1.08	0.245	0.232	0.54	0.469	0.33	0.226	0.227
A-427	0.97	0.964	0.999	–	0.967	1.12	1.15	1.19	–	1.11	1.15	1.13	1.15	1.21	1.12	0.578	0.539	0.587	0.395	0.3
ABC-1	–	–	–	–	–	1.23	0.924	1.05	0.747	1.76	0.94	0.874	0.965	0.376	0.338	0.997	1.12	1.35	–	0.509
NCI-H460	1.08	0.97	1.25	1.01	1.12	1.02	1.05	0.969	0.935	1.02	1.02	0.922	1.09	0.268	0.0336	0.533	0.516	0.699	0.146	0.0478
EBC-1	0.424	0.411	0.393	0.352	0.251	0.115	0.109	0.0995	0.106	0.104	0.926	1.04	1.04	0.8	0.187	–	–	–	–	–
NCI-H358	–	–	–	–	–	0.62	0.701	0.607	0.538	0.365	0.785	0.671	0.735	0.397	0.236	0.187	0.205	0.213	0.109	0.139
ChaGo-K-1	1.09	0.793	0.829	0.377	0.939	0.853	0.903	0.85	0.762	0.882	–	–	–	–	–	0.463	0.56	0.494	0.574	0.521
NCI-H2228	0.81	1.09	0.941	0.787	0.791	0.86	0.845	0.735	0.746	0.619	0.839	0.607	1	0.803	0.338	–	–	–	–	–
NCI-H650	–	–	–	–	–	1.04	1.08	0.969	0.782	0.966	0.995	0.958	0.887	0.358	0.245	0.289	0.325	0.328	0.33	0.306
NCI-H1563	–	–	–	–	–	0.865	0.984	0.98	0.98	0.903	1.29	1.19	1.27	1.1	0.844	–	–	–	–	–
NCI-H1703	0.894	–	1.43	0.924	0.932	0.356	–	0.379	0.513	0.267	0.742	0.64	0.504	0.106	0.0823	–	–	–	–	–
NCI-H1299	1.07	1.03	1.03	0.916	1.04	1.07	1.11	1.13	1.12	1.11	1.06	1.12	0.81	0.941	0.375	–	–	–	–	–
NCI-H661	–	–	–	–	–	0.974	1.07	1.01	0.932	1	0.535	0.528	0.462	0.494	0.605	0.614	0.567	0.511	0.264	0.231
NCI-H2342	–	–	–	–	–	1.06	1.05	1.06	1.01	0.959	–	–	–	–	–	0.821	0.756	0.76	0.743	0.78
SW 900	–	–	–	–	–	0.894	1.07	0.881	0.857	0.503	–	–	–	–	–	0.388	0.344	0.43	0.396	0.311
NCI-H2170	0.615	0.622	0.456	0.543	0.501	0.994	1.05	0.974	0.773	0.963	–	–	–	–	–	0.518	0.532	0.548	0.46	0.379
NCI-H1623	–	–	–	–	–	0.871	0.913	0.85	–	0.671	–	–	–	–	–	–	–	–	–	–
